In article PMC11375437, “Selective labelling of GBA2 in cells with fluorescent β-D-arabinofuranosyl cyclitol aziridines” (Chemical Science, 2024):

Target: T1, GBA2 (Homo sapiens, UniProt Q9HCG7)
T1 sequence (Q9HCG7 1-927): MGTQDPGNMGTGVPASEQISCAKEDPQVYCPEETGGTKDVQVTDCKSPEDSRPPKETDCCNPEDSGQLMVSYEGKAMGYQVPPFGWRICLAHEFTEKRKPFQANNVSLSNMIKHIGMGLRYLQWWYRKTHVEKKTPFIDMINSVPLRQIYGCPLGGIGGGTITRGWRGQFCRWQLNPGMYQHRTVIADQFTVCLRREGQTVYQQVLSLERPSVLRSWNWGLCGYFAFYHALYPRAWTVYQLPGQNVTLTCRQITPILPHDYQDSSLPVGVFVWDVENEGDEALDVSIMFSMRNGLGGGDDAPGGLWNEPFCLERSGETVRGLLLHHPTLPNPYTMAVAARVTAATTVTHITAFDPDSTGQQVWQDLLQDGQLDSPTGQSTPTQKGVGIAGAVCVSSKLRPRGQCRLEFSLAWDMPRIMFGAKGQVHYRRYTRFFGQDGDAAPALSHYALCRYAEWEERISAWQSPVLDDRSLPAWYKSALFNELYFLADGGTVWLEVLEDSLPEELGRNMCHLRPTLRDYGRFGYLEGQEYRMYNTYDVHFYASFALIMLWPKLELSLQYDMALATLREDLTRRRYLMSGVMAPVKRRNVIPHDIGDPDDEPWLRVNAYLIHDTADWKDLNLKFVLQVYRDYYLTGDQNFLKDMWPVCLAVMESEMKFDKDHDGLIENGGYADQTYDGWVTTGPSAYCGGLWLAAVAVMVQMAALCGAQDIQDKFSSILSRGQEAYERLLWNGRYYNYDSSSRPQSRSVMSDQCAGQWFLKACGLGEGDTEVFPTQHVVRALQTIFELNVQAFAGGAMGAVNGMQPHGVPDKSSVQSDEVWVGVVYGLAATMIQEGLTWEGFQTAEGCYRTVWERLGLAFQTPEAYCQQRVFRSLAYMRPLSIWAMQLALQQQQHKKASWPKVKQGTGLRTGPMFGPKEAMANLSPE
Experiment: In situ labelling/inactivation in intact HEK293T cells (endogenous GBA1, GBA2/GBA3 OE)
Assay type: cell-based
Parameters: expressed in transfected cells; host or cells: HEK293T GBA1/GBA2 KO (CRISPR/Cas9), GBA2 overexpressed
Details: ESI Fig. S8B (24 h incubation)
Description: We next sought to investigate whether we could identify and localize active GBA2 molecules in human cells using our β-D-Araf aziridine ABPs. […] The lysates were then denatured, their protein content separated by SDS-PAGE and the resulting wet gel slabs scanned for fluorescence. Following this procedure, we observed that all three β-D-Araf ABPs 3–5 enter intact cells, where they react with GBA2, and given the enzyme lifetime (>24 h), also with newly synthesized GBA2 (Fig. 5A, ESI Fig. S8A and B ^†).
Figure S7. Fluorescent gel images of in situ labelling of intact HEK293T cells (GBA1 endogenous and GBA2/GBA3 OE) by arabinofuranosyl cyclitol configured ABPs 3-5, 14 and 20 after 1 h incubation. GAA = Lysosomal α glucosidase (EC 3.2.1.20, CAZy GH31).
Figure S8. […] Intact HEK293T cells were treated with β-D-Araf ABPs for 24 h at 37 °C with 7% CO2, then cells were collected and lysed for labelling studies with or without residual β-glucosidases activity read out. […]
2.8 β-Glucosidase inactivation visualized by competitive ABPP with SDS-PAGE In general, samples containing GBA1, GBA2 or GBA3 (see the exact constitution of these samples in the described case) are first incubated (in vitro or in situ) with the inactivator compounds, subsequently, the fluorescent readout ABPs were added and incubated with the mixture to reveal the residual active β-glucosidase enzymes. […]

SMILES | Concentration at which GBA2 is inactivated almost completely in intact cells [nM]
COc1ccc(C2=[N+]3C(=C(CCCCc4cn(CCCCCCCCN5[C@@H]6[C@H](CO)[C@@H](O)[C@H](O)[C@@H]65)nn4)c4ccc(-c5ccc(OC)cc5)n4[B-]3(F)F)C=C2)cc1 (some centres unmarked) [ABP 4] | 100
CC1=CC(C)=[N+]2C1=C(CCCCc1cn(CCCCCCCCN3[C@@H]4[C@H](CO)[C@@H](O)[C@H](O)[C@@H]43)nn1)c1c(C)cc(C)n1[B-]2(F)F (some centres unmarked) [ABP 3] | 100
